Laboratory results reported in PubChem BioAssay (NCI).
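In this assay, cells in 96-well plates receive the compound at five concentrations for 48 hours. Endpoints are linearly interpolated between the surrounding concentrations. GI50 is the concentration that inhibits growth by half. At the TGI there is no net growth.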

Experiments:
Test in all cases: NCI tumour cell line growth inhibition, 48 h
[1] = system: HCC-2998 colon
[2] = system: A498 renal
[3] = system: NCI/ADR-RES ovarian
[4] = system: RPMI-8226 leukemia
[5] = system: SNB-75 CNS
[6] = system: SK-MEL-2 melanoma
[7] = system: OVCAR-4 ovarian
[8] = system: HOP-62 NSCLC
[9] = system: MCF7 breast
[10] = system: MDA-MB-231 breast
[11] = system: SN12C renal
[12] = system: 786-0 renal
[13] = system: COLO 205 colon
[14] = system: K-562 leukemia
[15] = system: HT29 colon
[16] = system: SF-268 CNS
[17] = system: HS 578T breast
[18] = system: MOLT-4 leukemia
[19] = system: NCI-H226 lung
[20] = system: IGROV1 ovarian
[21] = system: SNB-19 CNS
[22] = system: SK-MEL-28 melanoma
[23] = system: M14 melanoma
[24] = system: RXF 393 renal
[25] = system: SK-OV-3 ovarian
[26] = system: CAKI-1 renal
[27] = system: ACHN renal
[28] = system: HCT-15 colon
[29] = system: EKVX NSCLC
[30] = system: SF-295 CNS
[31] = system: NCI-H522 lung
[32] = system: HOP-92 NSCLC
[33] = system: HL-60(TB) leukemia
[34] = system: HCT-116 colon
[35] = system: TK-10 renal
[36] = system: DU-145 prostate
[37] = system: OVCAR-5 ovarian
[38] = system: BT-549 breast
[39] = system: CCRF-CEM leukemia
[40] = system: A549 NSCLC
[41] = system: UO-31 renal
[42] = system: UACC-62 melanoma
[43] = system: NCI-H460 lung
[44] = system: T-47D breast
[45] = system: LOX IMVI melanoma
[46] = system: NCI-H23 lung
[47] = system: KM12 colon
[48] = system: SW-620 colon
[49] = system: OVCAR-8 ovarian
[50] = system: MALME-3M melanoma
[51] = system: PC-3 prostate
[52] = system: SK-MEL-5 melanoma
[53] = system: OVCAR-3 ovarian
[54] = system: U251 CNS
[55] = system: SF-539 CNS
[56] = system: MDA-MB-435

`COc1ccc(/C=C/c2nnc(/C=C/c3ccc(OC)c(OC)c3)o2)cc1OC` showed a GI50 [1] of 19.4 µM, a TGI [1] of over 100 µM and a GI50 [2] of 0.24 µM. It also gave a TGI [2] of 9.1 µM, a GI50 [3] of 3.52 µM and a TGI [3] of over 100 µM. The GI50 [4] was 2.65 µM, the TGI [4] was over 100 µM and the GI50 [5] was 4.22 µM. For the same molecule, the TGI [5] was 45.5 µM, the GI50 [6] was 2.9 µM and the TGI [6] was 18.6 µM. It also gave a GI50 [7] of 9.08 µM, a TGI [7] of over 100 µM and a GI50 [8] of 5.21 µM. It also gave a TGI [8] of over 100 µM, a GI50 [9] of 3.44 µM and a TGI [9] of over 100 µM. For the same molecule, the GI50 [10] was 3.62 µM, the TGI [10] was 43.4 µM and the GI50 [11] was 5.5 µM. The TGI [11] was over 100 µM, the GI50 [12] was 5.59 µM and the TGI [12] was over 100 µM. For the same molecule, the GI50 [13] was 8.35 µM, the TGI [13] was 98.2 µM and the GI50 [14] was 1.83 µM. For the same molecule, the TGI [14] was over 100 µM, the GI50 [15] was 2.61 µM and the TGI [15] was 10.8 µM. It also gave a GI50 [16] of 7.77 µM, a TGI [16] of over 100 µM and a GI50 [17] of 3.71 µM. For the same molecule, the TGI [17] was 47.5 µM, the GI50 [18] was 3.24 µM and the TGI [18] was over 100 µM. It also gave a GI50 [19] of 14.9 µM, a TGI [19] of over 100 µM and a GI50 [20] of 4.23 µM. The TGI [20] was over 100 µM, the GI50 [21] was 4.11 µM and the TGI [21] was 91.7 µM. It also gave a GI50 [22] of 4.96 µM, a TGI [22] of over 100 µM and a GI50 [23] of 3.1 µM. For the same molecule, the TGI [23] was 26 µM, the GI50 [24] was 7.9 µM and the TGI [24] was 78.1 µM. It also gave a GI50 [25] of 8.62 µM, a TGI [25] of 93.3 µM and a GI50 [26] of 11.4 µM. The TGI [26] was over 100 µM, the GI50 [27] was 13.9 µM and the TGI [27] was over 100 µM. It also gave a GI50 [28] of 2.78 µM, a TGI [28] of over 100 µM and a GI50 [29] of 6.22 µM. The TGI [29] was over 100 µM, the GI50 [30] was 2.95 µM and the TGI [30] was 17.7 µM. The GI50 [31] was 1.9 µM, the TGI [31] was 6.8 µM and the GI50 [32] was 2.52 µM. It also gave a TGI [32] of 23.3 µM, a GI50 [33] of 2.36 µM and a TGI [33] of 8.6 µM. For the same molecule, the GI50 [34] was 2.57 µM, the TGI [34] was 17.7 µM and the GI50 [35] was 3.77 µM. It also gave a TGI [35] of 27.8 µM, a GI50 [36] of 15 µM and a TGI [36] of over 100 µM. The GI50 [37] was 4.9 µM, the TGI [37] was 53.8 µM and the GI50 [38] was 2.9 µM. The TGI [38] was 35.7 µM, the GI50 [39] was 3.97 µM and the TGI [39] was over 100 µM. For the same molecule, the GI50 [40] was 4.84 µM, the TGI [40] was over 100 µM and the GI50 [41] was 4.78 µM. For the same molecule, the TGI [41] was over 100 µM, the GI50 [42] was 2.39 µM and the TGI [42] was 9.91 µM. The GI50 [43] was 4.23 µM, the TGI [43] was over 100 µM and the GI50 [44] was 3.48 µM. It also gave a TGI [44] of 81.2 µM, a GI50 [45] of 3.11 µM and a TGI [45] of 29 µM. It also gave a GI50 [46] of 4.4 µM, a TGI [46] of over 100 µM and a GI50 [47] of 6.86 µM. It also gave a TGI [47] of over 100 µM, a GI50 [48] of 3.35 µM and a TGI [48] of over 100 µM. The GI50 [49] was 8.78 µM, the TGI [49] was over 100 µM and the GI50 [50] was 6.16 µM. It also gave a TGI [50] of over 100 µM, a GI50 [51] of 4.07 µM and a TGI [51] of over 100 µM. For the same molecule, the GI50 [52] was 2.17 µM, the TGI [52] was 10.1 µM and the GI50 [53] was 5.01 µM. The TGI [53] was 80.8 µM, the GI50 [54] was 3.81 µM and the TGI [54] was 18.6 µM. For the same molecule, the GI50 [55] was 2.66 µM, the TGI [55] was 9.4 µM and the GI50 [56] was 0.929 µM. For the same molecule, the TGI [56] was 3.93 µM.
